In the assay the target is T1, homomeric GABAAR β3 (Rattus norvegicus, UniProt P63079).
T1 construct: gene Gabrb3
Description: BCECF fluorescence, GABA-mediated HCO3- efflux. In kind it is cell-based. The conditions noted are these: 25 mM HCO3-; pH 7.4.

We go through one molecule from publication PMC9917249, “Zinc Inhibits the GABAAR/ATPase during Postnatal Rat Development: The Role of Cysteine Residue” (International Journal of Molecular Sciences, 2023).

T1 sequence (P63079 26-473): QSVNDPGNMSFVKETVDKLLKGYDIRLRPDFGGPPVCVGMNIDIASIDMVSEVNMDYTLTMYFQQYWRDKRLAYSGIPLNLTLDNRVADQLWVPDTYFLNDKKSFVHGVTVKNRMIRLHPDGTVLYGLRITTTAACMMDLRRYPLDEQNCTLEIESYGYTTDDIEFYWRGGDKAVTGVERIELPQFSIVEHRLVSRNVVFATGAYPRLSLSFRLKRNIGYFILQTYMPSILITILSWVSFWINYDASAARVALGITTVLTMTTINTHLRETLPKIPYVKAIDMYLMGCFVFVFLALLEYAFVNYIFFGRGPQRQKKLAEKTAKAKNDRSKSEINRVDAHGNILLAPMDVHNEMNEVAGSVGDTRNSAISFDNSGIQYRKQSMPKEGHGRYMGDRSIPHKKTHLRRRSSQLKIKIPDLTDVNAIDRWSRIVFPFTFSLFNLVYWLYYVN

Turning to `NCCCC(=O)O` [GABA], the “maximum peak fluorescence change at 100 μM GABA” value stood at 14.0 ± 1.3%.
